Assay results: patent publication US9133184B2, “Chromen-2-one derivatives and their use as monoamine neurotransmitter re-uptake inhibitors” (ANIONA APS, priority 2010, dated 2015)
Where a name gives a salt, the structure may show the parent alone.

What was measured:
Format in all cases: biochemical
[1] = test system: serotonine (5-HT) reuptake in synaptosomes; assay: Inhibition of 5-HT reuptake in synaptosomes; settings: 3H-5-HT, read-out: 5-HT-uptake IC50
Protocol: (§1) Compounds were tested for their ability to inhibit the reuptake of the monoamine neurotransmitters dopamine (DA) noradrenaline (NA) and serotonine (5-HT) in synaptosomes as described in WO 97/16451 (NeuroSearch A/S).
(§2) The test values are given as IC50 (the concentration (μM) of the test substance which inhibits the specific binding of ^3H-DA, ^3H-NA, or ^3H-5-HT by 50%).

[2] = test system: dopamine (DA) reuptake in synaptosomes; assay: Inhibition of DA reuptake in synaptosomes; settings: 3H-DA, read-out: DA-uptake IC50
Protocol: as §1, §2

[3] = test system: noradrenaline (NA) reuptake in synaptosomes; assay: Inhibition of NA reuptake in synaptosomes; settings: 3H-NA, read-out: NA-uptake IC50
Protocol: as §1, §2

Structure (SMILES): COc1cc2ccc(O[C@@H]3C[C@H]4CC[C@@H](C3)N4)cc2oc1=O [Compound 1.1, Exo-7-[(-8-azabicyclo[3.2.1]octan-3-yl)oxy]-3-methoxy-chromen-2-one hydrochloride]
- IC50 [1]: 2.9 nM
- IC50 [2]: 70 nM
- IC50 [3]: 3.8 nM
